Test results from PMC6606608, “Chemical logic of MraY inhibition by antibacterial nucleoside natural products” (Nature Communications, 2019).
Read-outs that look alike come from different tables or passages of the source.

Assays:
[1] = target: T1, MraYAA (phospho-MurNAc-pentapeptide translocase, MraY) (Aquifex aeolicus, UniProt O66465); assay: X-ray crystal structure ([…] Å); UMP-Glo enzyme inhibition IC50; type: biochemical
T1 construct: Codon-optimized His-MBP-PreScission fusion, E. coli C41(DE3), DDM-extracted, tag cleaved; IC50 on MraYAA alone (NB7 only in crystals)
T1 sequence (O66465 1-359): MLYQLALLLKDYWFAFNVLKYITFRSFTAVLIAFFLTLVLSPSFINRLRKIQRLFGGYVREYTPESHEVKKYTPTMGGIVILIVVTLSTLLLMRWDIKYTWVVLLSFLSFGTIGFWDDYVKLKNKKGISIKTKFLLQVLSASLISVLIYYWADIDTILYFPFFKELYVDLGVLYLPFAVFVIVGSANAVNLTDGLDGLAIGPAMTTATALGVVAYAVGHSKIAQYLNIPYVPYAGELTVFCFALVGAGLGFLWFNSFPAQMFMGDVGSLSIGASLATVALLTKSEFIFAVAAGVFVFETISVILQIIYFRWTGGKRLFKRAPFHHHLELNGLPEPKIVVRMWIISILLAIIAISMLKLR

[2] = target: T1, MraYAA (phospho-MurNAc-pentapeptide translocase, MraY); assay: as above; type: biochemical; remark: listed apart in the source

Row | IC50 [1] [µM] | IC50 [2] [µM] | Structure (SMILES)
1 | 0.052 |  | CSCC[C@H](NC(=O)N[C@@H](Cc1cccc(O)c1)C(=O)O)C(=O)N[C@H](C(=O)N/C=C1/O[C@@H](n2ccc(=O)[nH]c2=O)[C@H](O)[C@@H]1O)[C@H](C)N(C)C(=O)[C@@H](N)Cc1cccc(O)c1 [3′-hydroxymureidomycin A]
2 |  | 0.185 | CO[C@H]1[C@@H](O)[C@H](n2ccc(=O)[nH]c2=O)O[C@@H]1[C@@H](O[C@H]1OC(C(=O)N[C@H]2CCCCNC2=O)=C[C@H](O)[C@@H]1O)C(N)=O [capuramycin]
